pIC50: −log10 of the molar value. “Also recorded” adds a separate entry of the source.
Tests used:
HEK293 hMATE2K cells = test: MTT cell viability, HEK293 hMATE2K cells; format: cell-based, human; conditions: 100 μM phenanthriplatin
Method: (§1) A modified 3-(4,5-dimethylthiazol-2-yl)-2,5-diphenyltetrazolium bromide (MTT) assay (Mosmann, [1983]) was used to test the chemosensitivity of cells to phenanthriplatin and, in some experiments, to cisplatin by determining the glycolysis rate via the reduction of the yellow tetrazolium salt MTT to a purple formazan dye, as previously described (Wehe et al., [2014]). Briefly, after growing for 24 h in the incubator, cells expressing or not hOCT2, hMATE1, hMATE2 or Ctr1 were treated for 10 min with platinum derivatives. Control cells were incubated with drug-free complete cell culture medium. Afterwards, the medium was carefully removed and replaced by 200 μL of fresh complete cell culture medium. After incubation for another 24 h, 10 μL of MTT solution containing 5 mg/mL of the dye were added to each well, and the cells were again incubated for 3 h. The medium was then removed and 100 μL of lysis buffer containing 10% (w/v) sodium dodecyl sulfate and 40% (v/v) dimethylformamide was added to each well. The plates were shaken for 10 min to destroy the cell structure and dissolve the blue formazan dye (Furchert et al., [2007]; Wehe et al., [2014]). Finally, the absorbance was measured at 590 nm using an automated microtiter plate reader (Infinite M200; Tecan, Männedorf, Switzerland). The percentage of viable cells in the untreated controls was compared to that for the various treatments. […]

mOCT2 = molecular target: T1, mOCT2 (Mus musculus, UniProt O70577); test: Inhibition of ASP+ uptake in HEK 293 cells expressing mOCT2; format: cell-based, murine; conditions: HEK 293 mOCT2, 1 μM ASP+
T1 construct: expressed in transfected cells
T1 sequence (O70577 1-553): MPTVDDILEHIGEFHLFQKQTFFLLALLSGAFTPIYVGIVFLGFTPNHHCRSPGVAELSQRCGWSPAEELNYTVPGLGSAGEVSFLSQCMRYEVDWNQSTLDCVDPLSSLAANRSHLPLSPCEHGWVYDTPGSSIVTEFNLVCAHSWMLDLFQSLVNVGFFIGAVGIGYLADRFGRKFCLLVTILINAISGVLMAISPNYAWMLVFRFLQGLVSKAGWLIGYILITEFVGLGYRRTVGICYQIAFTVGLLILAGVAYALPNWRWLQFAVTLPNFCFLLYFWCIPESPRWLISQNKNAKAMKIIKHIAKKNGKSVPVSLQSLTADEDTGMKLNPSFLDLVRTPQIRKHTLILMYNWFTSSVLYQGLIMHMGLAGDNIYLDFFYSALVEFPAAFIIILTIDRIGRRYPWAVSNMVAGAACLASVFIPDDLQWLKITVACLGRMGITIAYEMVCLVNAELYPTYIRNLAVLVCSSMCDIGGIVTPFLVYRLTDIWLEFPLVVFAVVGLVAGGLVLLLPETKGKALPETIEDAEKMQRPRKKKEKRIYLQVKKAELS
Method: The interaction of phenanthriplatin with transporters for organic cations (OCT1-3, MATE1, and MATE2K) was investigated by measuring its effects on the uptake of the fluorescent organic cation 4-(4-dimethylamino)styryl-N-methylpyridinium (ASP^+). Microfluorometric measurements of ASP^+ uptake were performed with a fluorescence plate reader (Infinity 200, Tecan, Crailsheim, Germany; excitation at 465 nm, emission at 590 nm) as described previously for cultured HEK 293 cells (Wilde et al., [2009]). Before measurements, the culture medium in the wells of the 96 well microtiter plate containing HEK 293 cells was replaced by a HCO3- -free Ringer-like solution containing (in mM) NaCl 145, K2HPO4 1.6, KH2PO4 0.4, D-glucose 5, MgCl2 1, calcium gluconate 1.3, and pH adjusted to 7.4. Fluorescence was measured dynamically at 37°C in each well before and after ASP^+ addition to HCO3- -free Ringer-like solution, alone or together with increasing phenanthriplatin concentrations, and plotted versus time. ASP^+ (final concentration 1 or 10 μM for experiments with OCTs or MATEs, respectively) was added after the third sampling interval. Emission from the complete area of the well bottom was analyzed four times and averaged for each well. […] Background fluorescence was measured for each plate in wells with identical solutions containing no cells and subtracted from each well containing cells. […]

HEK 293 hOCT2 cells = test: MTT cell viability, HEK 293 hOCT2 cells; format: cell-based, human; conditions: 10 min
Method: (§2) A modified 3-(4,5-dimethylthiazol-2-yl)-2,5-diphenyltetrazolium bromide (MTT) assay (Mosmann, [1983]) was used to test the chemosensitivity of cells to phenanthriplatin and, in some experiments, to cisplatin by determining the glycolysis rate via the reduction of the yellow tetrazolium salt MTT to a purple formazan dye, as previously described (Wehe et al., [2014]). Briefly, after growing for 24 h in the incubator, cells expressing or not hOCT2, hMATE1, hMATE2 or Ctr1 were treated for 10 min with platinum derivatives. Control cells were incubated with drug-free complete cell culture medium. Afterwards, the medium was carefully removed and replaced by 200 μL of fresh complete cell culture medium. After incubation for another 24 h, 10 μL of MTT solution containing 5 mg/mL of the dye were added to each well, and the cells were again incubated for 3 h. The medium was then removed and 100 μL of lysis buffer containing 10% (w/v) sodium dodecyl sulfate and 40% (v/v) dimethylformamide was added to each well. The plates were shaken for 10 min to destroy the cell structure and dissolve the blue formazan dye (Furchert et al., [2007]; Wehe et al., [2014]). Finally, the absorbance was measured at 590 nm using an automated microtiter plate reader (Infinite M200; Tecan, Männedorf, Switzerland). The percentage of viable cells in the untreated controls was compared to that for the various treatments. Experiments carried out with DAOY and UW228 cells followed a similar protocol except that these cells were incubated for 24 h with phenanthriplatin.

HEK293 hMATE1 cells = test: MTT cell viability, HEK293 hMATE1 cells; format: cell-based, human; conditions: HEK293 hMATE1, 100 μM phenanthriplatin
Method: as §1

hOCT2 = molecular target: T2, hOCT2 (Homo sapiens, UniProt O15244); test: Inhibition of ASP+ uptake in HEK 293 cells expressing hOCT2; format: cell-based; conditions: HEK 293 hOCT2, 1 μM ASP+
T2 construct: expressed in transfected cells; gift of H. Koepsell
T2 sequence (O15244 1-555): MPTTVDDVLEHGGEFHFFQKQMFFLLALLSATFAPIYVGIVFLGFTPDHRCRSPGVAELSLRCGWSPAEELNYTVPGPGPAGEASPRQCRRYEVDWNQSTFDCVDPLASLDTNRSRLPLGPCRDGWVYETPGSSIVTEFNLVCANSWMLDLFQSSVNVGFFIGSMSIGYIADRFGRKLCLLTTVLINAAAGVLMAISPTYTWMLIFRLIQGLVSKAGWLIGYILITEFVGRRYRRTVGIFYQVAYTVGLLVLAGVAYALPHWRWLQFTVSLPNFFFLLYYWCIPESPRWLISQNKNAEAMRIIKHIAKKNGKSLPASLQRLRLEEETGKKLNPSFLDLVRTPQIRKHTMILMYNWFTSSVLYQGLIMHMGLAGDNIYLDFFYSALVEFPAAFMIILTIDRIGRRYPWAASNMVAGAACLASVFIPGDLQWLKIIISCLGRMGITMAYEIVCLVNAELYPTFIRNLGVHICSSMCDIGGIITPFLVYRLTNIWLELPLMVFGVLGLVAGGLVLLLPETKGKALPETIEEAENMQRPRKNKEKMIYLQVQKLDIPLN
Method: The interaction of phenanthriplatin with transporters for organic cations (OCT1-3, MATE1, and MATE2K) was investigated by measuring its effects on the uptake of the fluorescent organic cation 4-(4-dimethylamino)styryl-N-methylpyridinium (ASP^+). Microfluorometric measurements of ASP^+ uptake were performed with a fluorescence plate reader (Infinity 200, Tecan, Crailsheim, Germany; excitation at 465 nm, emission at 590 nm) as described previously for cultured HEK 293 cells (Wilde et al., [2009]). Before measurements, the culture medium in the wells of the 96 well microtiter plate containing HEK 293 cells was replaced by a HCO3- -free Ringer-like solution containing (in mM) NaCl 145, K2HPO4 1.6, KH2PO4 0.4, D-glucose 5, MgCl2 1, calcium gluconate 1.3, and pH adjusted to 7.4. Fluorescence was measured dynamically at 37°C in each well before and after ASP^+ addition to HCO3- -free Ringer-like solution, alone or together with increasing phenanthriplatin concentrations, and plotted versus time. ASP^+ (final concentration 1 or 10 μM for experiments with OCTs or MATEs, respectively) was added after the third sampling interval. Emission from the complete area of the well bottom was analyzed four times and averaged for each well. […] Background fluorescence was measured for each plate in wells with identical solutions containing no cells and subtracted from each well containing cells. Experiments were performed with cells from one passage of the same day with controls and test replicates in the same plate.
Data are presented as mean values ± SEM, with (n) referring to the number of wells. IC50 values defined as the concentration of platinum agent required to inhibit uptake of ASP^+ by 50% and EC50 values used to assess cell viability were obtained by sigmoidal concentration-response curve fitting using GraphPad Prism, Version 5.3 (GraphPad Software, San Diego, USA). […] For multiple comparisons, ANOVA with Bonferroni post-test was used. A P-value < 0.05 was considered statistically significant.

Ctr1^−/− MEFs = test: MTT cell viability, Ctr1-/- MEFs; format: cell-based, mouse
Method: as §2

pIC50 (mOCT2): 5.70
logIC50 (logEC50) ± SEM for inhibition of ASP+ uptake (mOCT2): −5.64 ± 0.05
pIC50 (hOCT2): 5.70
logIC50 (logEC50) ± SEM for inhibition of ASP+ uptake (hOCT2): −5.67 ± 0.10
Compound: N.N.[Cl][Pt+].c1ccc2c(c1)cnc1ccccc12 [phenanthriplatin, cis-[Pt(NH3)2Cl(phenanthridine)]^+]
Cell viability (MTT) (HEK293 hMATE2K cells): induces significant cell toxicity
Cell viability (MTT) (HEK 293 hOCT2 cells; HEK 293 hOCT2, 10 μM phenanthriplatin + 100 μM cimetidine): reduced upon co-incubation of phenanthriplatin with cimetidine
Cell viability (MTT) (HEK 293 hOCT2 cells; HEK 293 hOCT2, 10 μM phenanthriplatin): significant phenanthriplatin toxicity
Cell viability (MTT) (HEK293 hMATE1 cells): induces significant cell toxicity
Cell viability (MTT) (Ctr1^−/− MEFs; 1 mM, 10 min): toxic; also recorded: still present in Ctr1^−/− MEFs even though at lower level than in Ctr1^+/+ MEFs
Cell viability (MTT) (Ctr1^−/− MEFs; lower concentrations (<1 mM)): did not change the cell viability
